Target: G-actin (Prodan-G-actin; actin) (Oryctolagus cuniculus, UniProt P68135)
Assay: X-ray crystal structure
Type: binding
Details: nucleotide site

Nc1ncnc2c1ncn2[C@@H]1O[C@H](COP(=O)(O)OP(=O)(O)O)[C@@H](O)[C@H]1O [ADP]
X-ray crystal structure (actin co-crystallised with SF-01 or GC-04, Ca2+): complexes with GC-04 and SF-01 is occupied by ADP

Nc1ncnc2c1ncn2[C@@H]1O[C@H](COP(=O)(O)OP(=O)(O)OP(=O)(O)O)[C@@H](O)[C@H]1O [ATP]
X-ray crystal structure (actin co-crystallised with kabiramide C, Ca2+): ATP is bound to the actin in the KabC complex

Source: article PMC4213943 (ChemMedChem, 2014)
